Source: US20180153840A1, “THE COMPOSITIONS OF GLYCEROL AND /OR NON-TOXIC AMINO ACIDS FOR INHIBITING AND DESTROYING BIOFILM, INCLUDING RELATED METHODS” (priority 2015, published 2018)
Read-outs that look alike come from different tables or passages of the source.

Experiments:
C. albicans biofilm [1] = test: Fungal biofilm inhibition assay; type: cell-based, Candida albicans; conditions: sustained inhibition assay, 1% amino acid, p≤0.001
Procedure: (§1) For fungal biofilm assays, all solutions were prepared in RPMI 1640 medium. All bacterial biofilm solutions were prepared in Trypic Soy Broth (TSB), supplemented with 1% glucose (henceforth referred to as TSB-G). All subsequent procedures were performed in a manner that maintained sterility. A solution of each amino acid to be tested was prepared in weight to volume concentrations ranging from 0.1-5.0%. Amino acids were also tested in combinations. Compound solutions were homogenized with gentle agitation in the dark (4° C., 24 hours) before use.
(§2) All biofilm assays were performed using 384-well non-tissue culture treated polystyrene plates. The fungal species tested are as follows: Candida albicans, Candida guilliermondii Candida parapsilosis, Candida glabrata, Candida tropicalis and Candida dubliniensis. The bacterial species tested are as follows: Staphylococcus aureus (standard wild type and methicillin-resistant strain USA300), Escherichia coli, Pseudomonas aeruginosa and Staphylococcus epidermidis.
(§3) Fungal strains were streaked on Yeast Peptone Dextrose (YPD) agar plates and incubated at 30° C. for 48 hours. A single colony from each strain to be tested was inoculated into YPD broth and grown for 12 hours, at 30° C., shaking at 225 rpm. For the fungal biofilm inhibition assay, 1 μl of saturated overnight cell culture was added to either 80 μL of RPMI-1640 or RPMI-1640 supplemented with the amino acid compound solution to be tested, in a 384-well plate. The cells were allowed to adhere to the plate for 90 minutes at 37° C. with shaking (350 rpm). Loosely bound cells were washed once with phosphate buffered saline (PBS) and 80 ul of RPMI-1640, or RPMI-1640 supplemented with the amino acid compound solution was added to the plate. The plate was further incubated for 24 hours at 37° C. with shaking (350 rpm). Media was carefully aspirated and the biofilm was measured for fungal cell concentration by optical density at 600 nm. Twelve replicates were performed for each tested condition and the reported values were normalized to the control (RPMI-1640 media only).

C. albicans biofilm [2] = test: Fungal biofilm disruption assay; type: cell-based, Candida albicans; conditions: 1% amino acid, p≤0.001
Procedure: as §1, §2
(§4) For the fungal biofilm disruption assays, 80 μL of RPMI-1640 was added to the plate, along with 1 μL of overnight cell culture. The cells were allowed to adhere to the plate for 90 minutes at 37° C. with shaking (350 rpm). Loosely bound cells were washed once with PBS and 80 μL of RPMI-1640 was added to the plate. The plate was further incubated for 24 hours at 37° C. with shaking (350 rpm). Media was carefully aspirated from the mature biofilm and 80 μL of RPMI-1640, or RPMI-1640 supplemented with the amino acid compound solution to be tested, was gently added to the plate. The plate was further incubated for 24 hours at 37° C. with shaking (350 rpm). Media was carefully aspirated and the biofilm was measured for fungal cell concentration by optical density at 600 nm. Twelve replicates were performed for each tested condition and the reported values are normalized to the control (RPMI-1640 media only).

S. aureus biofilm [3] = test: Bacterial biofilm disruption assay; type: cell-based; conditions: Staphylococcus aureus, read-out: Reduce B Biofilm
Procedure: as §1, §2
(§5) Bacterial strains were streaked on Blood Agar plates (5% sheep blood in Tryptic Soy Broth) and incubated at 37° C. for 24 hours. A single colony from each strain to be tested was inoculated in a TSB broth and grown for 12 hours, at 37° C. with shaking (225 rpm).
(§6) For the bacterial biofilm disruption assays, 80 μL of TSB-G was added to the plate, along with 1 μL of overnight cell culture. The cells were allowed to adhere to the plate for 60 minutes at 37° C. without shaking. The media was carefully aspirated and 80 μL of TSB-G was added to the plate. The plate was further incubated for 24 hours at 37° C. without shaking. Media was carefully aspirated from the mature biofilm and 80 μL of TSB-G, or TSB-G supplemented with the amino acid to be tested, was gently added to the plate. The plate was further incubated for 24 hours at 37° C. without shaking. Media was aspirated and the biofilm was measured for bacterial cell concentration by optical density at 600 nm. Twelve replicates were performed for each tested condition and the reported values were normalized to the control (TSB-G media only).

fungal biofilms = test: Fungal biofilm assays (sustained inhibition and/or disruption); type: cell-based, Candida albicans; conditions: at least one of the two assays (sustained inhibition and/or disruption); for anti-biofilm properties against fungal biofilms: administered individually
Procedure: as §1, §2, §3, §4

bacterial biofilms = test: Bacterial biofilm assays (sustained inhibition and/or disruption); type: cell-based, Staphylococcus aureus; conditions: individually, about 0.1 to about 5.0% weight to volume (cystathionine 0.2%); at least one of the two assays
Procedure: as §1, §2, §5
(§7) For the bacterial biofilm inhibition assays, 1 μL of saturated overnight cell culture was added to either 80 μL of TSB-G, or TSB-G supplemented with the amino acid compound solution to be tested, in a 384-well plate. The cells were allowed to adhere to the plate for 60 minutes at 37° C. without shaking. The media was carefully aspirated and 80 μL of TSB-G, or TSB-G supplemented with the amino acid compound solution was added to the plate. The plate was further incubated for 24 hours at 37° C. without shaking. Media was carefully aspirated and the biofilm was measured for bacterial cell concentration by optical density at 600 nm. Eight or twelve replicates were performed for each tested condition and the reported values were normalized to the control (TSB-G media only).
as §6

[4] = Procedure: as §1, §2
S. aureus biofilm [5] = test: Bacterial biofilm inhibition assay; type: cell-based, Staphylococcus aureus; conditions: sustained inhibition assay; S. aureus; 1% amino acid; p≤0.001
Procedure: as §1, §2, §5, §7

[6] = test system: bacteria (S. aureus) biofilm and fungal (C. albicans) biofilm; test: Sustained inhibition biofilm assay, bacterial and fungal together (Table C: Both/Neutral); type: cell-based, Staphylococcus aureus; Candida albicans; conditions: 1% amino acid
Procedure: as §1, §2
Fungal strains were streaked on Yeast Peptone Dextrose (YPD) agar plates and incubated at 30° C. for 48 hours. A single colony from each strain to be tested was inoculated into YPD broth and grown for 12 hours, at 30° C., shaking at 225 rpm. For the fungal biofilm inhibition assay, 1 μl of saturated overnight cell culture was added to either 80 μL of RPMI-1640 or RPMI-1640 supplemented with the amino acid compound solution to be tested, in a 384-well plate. The cells were allowed to adhere to the plate for 90 minutes at 37° C. with shaking (350 rpm). […] Media was carefully aspirated and the biofilm was measured for fungal cell concentration by optical density at 600 nm. […]
For the bacterial biofilm inhibition assays, 1 μL of saturated overnight cell culture was added to either 80 μL of TSB-G, or TSB-G supplemented with the amino acid compound solution to be tested, in a 384-well plate. […] Media was carefully aspirated and the biofilm was measured for bacterial cell concentration by optical density at 600 nm. […]

[7] = test system: bacteria (S. aureus) biofilm and fungal (C. albicans) biofilm; test: Disruption biofilm assay, bacterial and fungal together (Table D: Both/Neutral); type: cell-based, Staphylococcus aureus; Candida albicans; conditions: 1% amino acid
Procedure: as §1, §2
as §4, with “Twelve replicates were performed for each tested condition and the reported values are normalized to the control (RPMI-1640 media only).” left out
For the bacterial biofilm disruption assays, 80 μL of TSB-G was added to the plate, along with 1 μL of overnight cell culture. […] Media was aspirated and the biofilm was measured for bacterial cell concentration by optical density at 600 nm. […]

[8] = test system: bacterial and fungal biofilms; test: In vitro testing on bacterial and fungal biofilms; type: cell-based; conditions: for effect on bacterial and fungal biofilm (in words): in vitro
Procedure: as §1, §2, §3, §4, §5
as §7, with “nm.” for “nm. Eight or twelve replicates were performed for each tested condition and the reported values were normalized to the control (TSB-G media only).”

[9] = disruption assay, S. aureus, 1% amino acid, p≤0.001

Row | Compound | inhibition at 1 % (S. aureus biofilm [3]; [9]) | anti-biofilm properties against bacterial biofilms (bacterial biofilms) | Reduce F Biofilm (C. albicans biofilm [1]) | Reduce F Biofilm (C. albicans biofilm [2]) | Reduce B Biofilm (S. aureus biofilm [5]) | Reduce Both [6] | Reduce Both [7] | effect on bacterial and fungal biofilm (in words) [8] | anti-biofilm properties against fungal biofilms (fungal biofilms) | also measured
1 | Cn1cncc1C[C@H](N)C(=O)O [3-Methylhistidine, 3-methyl-L-histidine] | 10 to 30% | anti-biofilm properties against bacterial biofilms |  |  |  |  |  |  |  | Promote F Biofilm (C. albicans biofilm [1]): • (a single dot (●) signifies an effect in a range of about 10 to about 30% change); Promote F Biofilm (C. albicans biofilm [2]): • (a single dot (●) signifies an effect in a range of about 10 to about 30% change); support (improve) fungal biofilm growth (fungal biofilms): support (improve) fungal biofilm growth
2 | N[C@@H](CCSC[C@H](N)C(=O)O)C(=O)O [Cystathionine, L-cystathionine] |  | anti-biofilm properties against bacterial biofilms |  |  |  |  |  |  |  | inhibition at 0.2 % (S. aureus biofilm [3]; disruption assay, S. aureus, 0.2% amino acid): 10 to 30%; solubility (in words) [4]: limited solubility
3 | N[C@@H](CCC(=O)O)C(=O)O [Glutamic Acid, L-glutamic acid] | > 30% |  | •• (two dots (●●) signifies an effect of greater than 30% change) | •• (two dots (●●) signifies an effect of greater than 30% change) | •• (two dots (●●) signifies an effect of greater than 30% change) | •• (two dots (●●) signifies an effect of greater than 30% change) | •• (two dots (●●) signifies an effect of greater than 30% change) | very active against biofilm |  | 
4 | CC(C)[C@H](N)C(=O)O [Valine, L-valine] |  |  |  |  |  |  |  | promote bacterial and fungal biofilm |  | Promote F Biofilm (C. albicans biofilm [1]): • (a single dot (●) signifies an effect in a range of about 10 to about 30% change); Promote F Biofilm (C. albicans biofilm [2]): • (a single dot (●) signifies an effect in a range of about 10 to about 30% change); support (improve) fungal biofilm growth (fungal biofilms): support (improve) fungal biofilm growth
5 | O=C(O)[C@@H]1C[C@@H](O)CN1 [Hydroxyproline, Trans-4-hydroxy-L-proline] |  | anti-biofilm properties against bacterial biofilms | • (a single dot (●) signifies an effect in a range of about 10 to about 30% change) |  | • (a single dot (●) signifies an effect in a range of about 10 to about 30% change) |  |  |  | anti-biofilm properties against fungal biofilms | inhibition at 1 % (S. aureus biofilm [3]): 10 to 30%
6 | N[C@@H](CC(=O)O)C(=O)O [Aspartic Acid, L-aspartic acid] | > 30% |  | •• (two dots (●●) signifies an effect of greater than 30% change) | •• (two dots (●●) signifies an effect of greater than 30% change) | •• (two dots (●●) signifies an effect of greater than 30% change) | •• (two dots (●●) signifies an effect of greater than 30% change) | •• (two dots (●●) signifies an effect of greater than 30% change) | very active against biofilm |  | 
7 | N[C@@H](COP(=O)(O)O)C(=O)O [Phosphoserine, O-phospho-L-serine] | 10 to 30% | anti-biofilm properties against bacterial biofilms |  | • (a single dot (●) signifies an effect in a range of about 10 to about 30% change) |  |  |  |  | anti-biofilm properties against fungal biofilms | 
8 | N[C@@H](CS)C(=O)O [Cysteine, L-cysteine] | > 30% |  | •• (two dots (●●) signifies an effect of greater than 30% change) | •• (two dots (●●) signifies an effect of greater than 30% change) | •• (two dots (●●) signifies an effect of greater than 30% change) | •• (two dots (●●) signifies an effect of greater than 30% change) | •• (two dots (●●) signifies an effect of greater than 30% change) |  |  | 
9 | Cn1cnc(C[C@H](N)C(=O)O)c1 [1-Methylhistidine, 1-methyl-L-histidine] |  |  |  |  |  |  |  |  |  | neutral, effect on bacterial or fungal biofilms ([8]; both assays (sustained inhibition and disruption)): no effect on bacterial or fungal biofilms; solubility (in words) [4]: limited solubility
10 | NCCO [Ethanolamine, ethanolamine] |  | anti-biofilm properties against bacterial biofilms | • (a single dot (●) signifies an effect in a range of about 10 to about 30% change) |  |  |  |  |  | anti-biofilm properties against fungal biofilms | 
